“And” between values parts separate entries of the source, which are not always exact repeats. Identical values can stand only once.
Tests used:
P. berghei ANKA = assay: Four-day suppressive test in P. berghei-infected mice; assay type: in vivo, Plasmodium berghei (male Balb-C mice)
Experimental: Male Balb-C mice with a weight of 18–22 g were fed with a commercial diet ad libitum under standard procedures of animal care following the aforementioned method approved by the Ethics Committee of the Institute of Immunology. The animals were infected with a rodent malaria strain of Plasmodium berghei ANKA. A million infected erythrocytes, in phosphate-buffered saline solution (PBS, 10 mM, pH 7.4, 0.1 mL), were inoculated ip to infect the animal. The parasitemia was inspected by continuous microscopic examination of Giemsa-stained smears.
One million P. berghei, injected in the caudal vein i.v, were used to infect the mice (n = 6). After two hours of inoculation, the compounds that were active in vitro were dissolved in DMSO (0.1 M) and subsequently diluted with Saline-Tween 20 solution (2%), and administered ip for 4 days (20 mg kg^−^1). The parasite load was evaluated on the fourth day by examining Giemsa-stained smears. Chloroquine (20 mg kg^−^1) was used as the positive control and saline solution as the negative control. Non-treated mice were used as a baseline control for survival times. The survival days and percentage of parasitemia were used to express the results.

VERO cells = assay: Cytotoxicity assay in VERO cells (MTT); assay type: cell-based; conditions: Chlorocebus sabaeus, 72 h
Experimental: The in vitro evaluations of compounds toxicity by MTT in VERO cells were performed as described in brief: VERO cells culture in DMEM, BSF 10%, were counted in suspension, seeded at 2 × 10^4 cells/well (100 μL) into a 96-well microplate, and incubated at 37 °C in a humidified 5% CO2 incubator for 24 h. After the incubation period, compounds were added in different concentrations: 50, 100, 150, 200, and 500 μM. The plate was incubated for 72 h in the same conditions. Then, 5 mg mL^−^1 of 3-(4,5-dimethylthiazol-2-yl)-2,5-diphenyl tetrazolium bromide (MTT) was added and incubated in darkness for 4 h. After this time, DMSO was added and the plate was read at 540 nm in a spectrophotometer Synergy HT (Biotek). The test was carried out in triplicate including untreated cells and reference drug controls.

[1] = tested on: T. cruzi epimastigotes (Y strain); assay: Trypanocidal activity, proliferation of T. cruzi epimastigotes (MTT); assay type: cell-based; conditions: Trypanosoma cruzi, 96 h, read-out: %ITcP: T. cruzi (epimastigotes) % inhibition proliferation
Experimental: The trypanocidal activity of compounds 7–39 was evaluated on the viability of T. cruzi epimastigotes (Y Strain). Parasites were cultivated in LIT medium supplemented with 10% FBS. The MTT method was used with minor modifications. Next, 2 × 10^6 parasites/mL were seeded in a 96-well plate, adding 50 μM of each derivative dissolved in DMSO (final concentration remained below 1%). The plate was incubated for 96 h at 29 °C. Then, 5 mg mL^−^1 of 3-(4,5-dimethylthiazol-2-yl)-2,5-diphenyl tetrazolium bromide (MTT) was added and incubated in darkness for 4 h. After this time, acidic isopropanol (4N) was added and the plate was read at 540 nm in a spectrophotometer Synergy HT (Biotek). Benznidazole (50 µM) was used as a reference drug.

β-hematin formation = assay: Inhibition of β-hematin formation in vitro; assay type: biochemical; conditions: n = 3; read-out: IC50 (βHF) inhibition of β-hematin formation (± SEM)
Experimental: The assay was performed according to previously reported protocols. Hemin chloride (50 μL, 4 mM) in DMSO (5.2 mg mL^−1) was pipetted into 96-well microplates. Different concentrations (0.1–100 mM) of the compounds in DMSO were added in triplicate (50 μL) with a final concentration of 0.025 mM–25 mM/well. Water (50 μL) or DMSO (50 μL) were used as controls. […] Next, the plates were incubated at 37 °C for 48 h and subsequently centrifuged (4000 rpm × 15 min). The supernatant was washed twice with DMSO (200 μL) and resuspended in NaOH (200 μL, 0.2 N). The solubilized products were diluted (1:2) with NaOH (0.1 N), and the plates were read in an ELISA reader at 405 nm (Microplate Reader, BIORAD-550). The results are expressed as % IβHF.

In the case of `COc1ccc(OC)c2c1C/C(=C\c1ccc(SCc3ccccc3)cc1)C2=O` [compound 12, (E)-2-[4-(Benzylthio)benzylidene]-2,3-dihydro-4,7-dimethoxyinden-1-one], the “Sd: Survival days (± SEM)” value (P. berghei ANKA; 20 mg kg−1 ip once daily, days 1–4 post-infection, n = 6) is reported as 12.3 ± 2.40 days and 12.3 ± 2.4 days, the “%P: Percentage of parasitemia (± SEM)” value (P. berghei ANKA; fourth day post-infection, 20 mg kg−1 ip once daily for 4 days, n = 6) is reported as 12.5 ± 3.1% and the Survival (P. berghei ANKA; surviving mice/total, 20 mg kg−1 ip for 4 days) is reported as 0/6. It also gave an IC50 (VERO cells) greater than 150000 nM, an inhibition at 50 µM [1] of 18.5 ± 2.9% and an IC50 (β-hematin formation) of 660 ± 100 nM.
